Source: patent EP1903028A1, “Conjugates of glutamate and NMDA receptor channel blockers without excito-toxic effects” (Tschollar,, Werner, priority 2006, dated 2008)
Where two headings read alike, the source gives them in different places.

Columns and labels:
[1] = test system: NMDA receptor; test: [3H]MK-801 binding to washed rat cortical membranes enriched for NMDA receptors; settings: binding enhanced by glycine, glutamate or spermine; 10, 100, 1000 µM Compound 2; approx. 3 nM 3H-MK-801
Protocol: (§1) The cleavage is inhibited by the specific aminopeptidase A inhibitor amastatin. The amount of Compound 2 produced by cleavage of Compound 1 after 3 hours incubation with hippocampal slices is shown. AMA=Amastatin. • FIGS. 3A,B show inhibition of NMDA function by Compound 2. […] Effects of Compound 2 on [^3H]MK-801 binding enhanced by glycine (panel A), glutamate (panel B) and spermine (panel C). […] The 3H-MK-801 concentration was approx. 3 nM in all the experiments. […] Effect of Compound 1 administered i.p. twice a day (30 min before session and at 5.00 p.m.) for 4 days. […] Data are Mean ± s.e.m. of the efficiency indexes grouped in 2-day intervals. […] Values represent the median latency (sec) to enter the shock compartment and interquartile ranges. †P <0.05 vs. scopolamine + (FS), ‡P < 0.01 vs. saline + (FS) (log rank test). […] Values represent the median latency (s) to enter the shock compartment and interquartile ranges. **P < 0.01 vs. vehicle no ECS, †P< 0.05 and ‡P< 0.01 vs. vehicle + ECS (log rank test).
MK-801 (dizocilpine) is an open-channel ligand of the NMDA Ca channel. Washed rat cortical membranes enriched for NMDA receptors were incubated with increasing concentrations of the co-agonists glycine or glutamate, or the positive modulator spermine, and Compound 2. The binding of ^3H MK801 was then measured. […]

[2] = biological target: T1, NMDAR (subtype NR1/NR2A) (Homo sapiens, UniProt Q05586+Q12879); test: Glutamate-evoked currents in NMDA receptor-transfected oocytes; type: cell-based; settings: glutamate 10uM, 100uM glycine, read-out: IC50, inhibition of glutamate-stimulated Ca current
T1 construct: expressed in transfected cells
T1 sequence (Q12879 23-1464, other chains not shown): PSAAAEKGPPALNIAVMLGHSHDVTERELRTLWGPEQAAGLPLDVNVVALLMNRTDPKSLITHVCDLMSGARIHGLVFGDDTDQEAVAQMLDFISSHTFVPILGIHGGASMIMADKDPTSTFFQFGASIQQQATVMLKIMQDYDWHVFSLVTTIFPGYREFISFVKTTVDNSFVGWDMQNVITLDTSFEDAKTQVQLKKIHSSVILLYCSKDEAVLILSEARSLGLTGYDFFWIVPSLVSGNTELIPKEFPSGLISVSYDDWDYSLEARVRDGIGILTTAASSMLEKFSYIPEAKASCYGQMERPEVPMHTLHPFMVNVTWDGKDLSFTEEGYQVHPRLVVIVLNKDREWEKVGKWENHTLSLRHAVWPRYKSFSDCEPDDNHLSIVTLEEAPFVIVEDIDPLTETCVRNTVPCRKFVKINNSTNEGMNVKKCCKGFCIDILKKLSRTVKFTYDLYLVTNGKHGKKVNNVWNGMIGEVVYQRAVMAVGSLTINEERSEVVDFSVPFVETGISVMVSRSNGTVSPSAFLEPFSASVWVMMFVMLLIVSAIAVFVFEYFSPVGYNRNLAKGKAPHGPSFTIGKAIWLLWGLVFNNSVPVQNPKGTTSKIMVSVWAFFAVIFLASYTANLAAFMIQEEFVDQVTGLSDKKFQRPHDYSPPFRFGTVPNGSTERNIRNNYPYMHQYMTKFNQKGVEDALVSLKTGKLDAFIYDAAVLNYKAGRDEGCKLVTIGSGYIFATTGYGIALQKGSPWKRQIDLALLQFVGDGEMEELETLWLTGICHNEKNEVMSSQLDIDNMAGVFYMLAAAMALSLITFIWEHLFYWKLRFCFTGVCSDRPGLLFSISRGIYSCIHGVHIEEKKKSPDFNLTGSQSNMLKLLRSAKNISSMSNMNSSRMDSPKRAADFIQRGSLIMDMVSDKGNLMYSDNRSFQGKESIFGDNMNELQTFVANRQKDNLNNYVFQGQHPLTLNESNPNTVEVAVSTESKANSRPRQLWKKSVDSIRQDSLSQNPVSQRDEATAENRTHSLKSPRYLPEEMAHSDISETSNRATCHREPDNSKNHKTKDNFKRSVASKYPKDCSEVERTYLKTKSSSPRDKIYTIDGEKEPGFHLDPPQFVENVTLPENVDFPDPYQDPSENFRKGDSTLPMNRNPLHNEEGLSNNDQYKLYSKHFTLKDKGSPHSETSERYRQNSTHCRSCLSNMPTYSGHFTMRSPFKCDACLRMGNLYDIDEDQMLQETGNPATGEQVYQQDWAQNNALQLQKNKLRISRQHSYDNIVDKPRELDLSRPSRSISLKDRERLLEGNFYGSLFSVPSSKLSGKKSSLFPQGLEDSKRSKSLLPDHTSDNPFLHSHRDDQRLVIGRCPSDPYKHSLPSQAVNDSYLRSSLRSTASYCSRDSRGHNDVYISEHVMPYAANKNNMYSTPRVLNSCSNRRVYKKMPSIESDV
Protocol: Glutamate stimulates an inward Ca current through the NMDA receptor channel by binding to a specific ligand-binding site at the NR1/NR2 subunit interface and opening the ion channel to the influx of calcium. Glutamate (10uM) was added to oocytes transfected with the NMDAR (subtype NR1/NR2A) in the presence of 100uM glycine and increasing amounts of Compound 2.

[3] = test system: CA1 pyramidal neurons; test: NMDA excito-toxicity in hippocampal slices in vitro (area of CA1 pyramidal neurons); type: cell-based, rat; settings: 100 µM NMDA, compound added 15 min prior, 45 min incubation
Protocol: In this experiment, slices were obtained from hippocampi of young (8 day old) rats. After one hour of pre-incubation, NMDA was added to give a final concentration of 100 µM. Either Compound 1 or Compound 2 was added 15 min prior to NMDA and the incubation was carried out for 45 min. Three slices of each sample were collected and fixed with glutaraldehyde (5%). After embedding and freezing, sections (4 µm) were stained with Cresyl violet. Neuronal injury was studied with light microscopy using an imaging analyser (Kontron, KS300). The area occupied by CA1 pyramidal neurons was measured in an analyser-defined field. The pattern of hippocampal neuro-degeneration following NMDA-stimulation consisted of a significant decrease in neuronal nuclei area. […] In contrast, Compound 1 had no effect on NMDA-induced neuronal damage (results not shown).

[4] = test system: gerbils subjected to bilateral occlusion of the carotid arteries; test: Neuro-protection after bilateral occlusion of the carotid arteries in vivo; design: species or system Mongolian gerbils
Protocol: This experiment investigated the neuro-protective effects of Compound 2 in gerbils subjected to bilateral occlusion of the carotid arteries. Mongolian gerbils were anaesthetised with halothane and the right and left common carotid arteries were occluded for a period of 5 min. […] The brains were cut into 10 µm-thick sections in the area of the hippocampus and sections were stained with cresyl violet. Quantitative assessment of area occupied by CA pyramidal neurons was performed using an image analyser (Kontron, KS300). For each animal, measurements were made in a defined field from both hippocampi in 4 coronal sections. The raw data were represented by the mean of 8 measures. The pattern of hippocampal neuro-degeneration following ischemia consisted of a significant decrease of neuronal nuclei area.
Compound 2 at a dose of 16 mg/kg, was 100% protective (see Figure 5).

[5] = test system: rats; test: Step-through active avoidance test (acquisition of active avoidance behaviour); type: in vivo; settings: for percent of conditioned avoidance: Compound 1: 3 and 10 mg/kg i.p. twice a day, 5 days, p<0.001
Protocol: as §1
The acquisition of active avoidance behaviour was evaluated during one 40-trial daily session for 5 consecutive days. Compound 1, when given at doses of 3 and 10 mg/kg, increased the percent of conditioned avoidance (see Figure 6A).

[6] = test system: rats; test: Radial maze learning test; type: in vivo; settings: for test acquisition in the radial maze: Compound 1: 1-30 mg/kg, versus control animals
Protocol: In another experiment of learning, a radial maze test was used. The radial maze consisted of eight arms radiating from a centre platform. The platform was 40 cm in diameter and the eight arms were 60 cm long, 13 cm wide, with walls 10 cm high. The surface of the maze was elevated 50 cm from the floor. Plastic food cups (4 cm in diameter) were at the end of each arm. One 50 mg micro-pellet was placed in a cup at the beginning of each trial. In the training session, the rat was placed in the centre of the platform facing arm #4 and allowed to freely explore the maze. The animal was left in the maze until it ate all of the 24 pellets placed three per arm.

[7] = test system: rats; test: Scopolamine-induced memory impairment, passive avoidance; type: in vivo; settings: Compound 1: 1 and 10 mg/kg, i.p.; significant (p<0.05) at 10 mg/kg
Protocol: as §1
In this experiment, Compound 1 was tested to determine whether it could reverse scopolamine-induced memory impairment in a passive-avoidance paradigm in rats.

[8] = Electroconvulsive shock-induced memory impairment; type: in vivo; settings: Compound 1: 3, 10 and 30 mg/kg; significant at 10 and 30 mg/kg (P <0.05, P <0.01)
Protocol: as §1
In another model of memory impairment, electroconvulsive shock was employed as a memory de-stabilizer. […] For doses of 10 and 30 mg/kg the effect was statistically significant (P <0.05 and P <0.01, respectively) (see Figure 7B).

[9] = in vivo; settings: rat, 30 mg/kg
Protocol: The average (± s.e.m.) plasma and cerebrospinal fluid levels of Compound 1, after a single i.p. or oral administration of 30 mg/kg plotted against time (h), are given in Figure 1. Compound 1 appeared in plasma shortly after both oral and i.p. administration, with a lag-time of 0.12 h. […] Compound 1 crossed the blood-CSF barrier very rapidly, showing lag times of 0.1-0.23 h after oral and i.p. administration, respectively. The maximum concentration of Compound 1 in the CSF was reached 45-60 min after oral and i.p. administration. […] Compound 1 therefore efficiently crosses into the CSF in rats.

[10] = biological target: T2, aminopeptidase A (Rattus norvegicus, UniProt P50123); type: in vitro ADME
T2 construct: Hippocampi were removed on ice and coronal slices chopped (0.40 mm thick); from tissue; host or cells: rat hippocampal slices
T2 sequence (P50123 whole entry): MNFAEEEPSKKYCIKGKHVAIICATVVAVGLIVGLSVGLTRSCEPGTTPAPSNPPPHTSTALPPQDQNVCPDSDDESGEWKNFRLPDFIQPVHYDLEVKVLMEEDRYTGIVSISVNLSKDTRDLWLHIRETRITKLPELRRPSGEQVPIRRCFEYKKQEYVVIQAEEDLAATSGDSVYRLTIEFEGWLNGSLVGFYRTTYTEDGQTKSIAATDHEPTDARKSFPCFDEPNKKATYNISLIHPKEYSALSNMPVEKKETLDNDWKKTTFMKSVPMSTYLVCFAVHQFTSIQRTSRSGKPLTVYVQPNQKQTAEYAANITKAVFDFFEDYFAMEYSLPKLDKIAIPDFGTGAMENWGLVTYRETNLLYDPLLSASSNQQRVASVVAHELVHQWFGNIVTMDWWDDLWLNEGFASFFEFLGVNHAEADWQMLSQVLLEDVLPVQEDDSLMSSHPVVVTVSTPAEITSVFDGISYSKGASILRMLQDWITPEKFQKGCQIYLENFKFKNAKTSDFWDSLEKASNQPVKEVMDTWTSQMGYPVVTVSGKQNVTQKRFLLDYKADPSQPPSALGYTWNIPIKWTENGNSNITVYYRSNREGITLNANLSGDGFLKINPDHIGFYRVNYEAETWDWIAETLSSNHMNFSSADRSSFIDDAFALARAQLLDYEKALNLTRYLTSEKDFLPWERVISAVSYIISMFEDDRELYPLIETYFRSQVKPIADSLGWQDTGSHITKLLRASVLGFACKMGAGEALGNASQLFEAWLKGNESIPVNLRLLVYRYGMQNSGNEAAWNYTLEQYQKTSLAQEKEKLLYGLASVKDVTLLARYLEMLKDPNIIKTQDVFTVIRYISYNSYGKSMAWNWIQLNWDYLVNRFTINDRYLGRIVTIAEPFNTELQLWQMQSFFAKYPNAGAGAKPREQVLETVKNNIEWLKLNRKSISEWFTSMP
Protocol: Animals were housed in plastic cages, with free access to standard laboratory food and water, under controlled conditions of lighting, humidity and temperature. Rats were killed by decapitation and brains were quickly removed and immediately transferred in ice-cold artificial cerebrospinal fluid (aCSF) having the following composition (mM):125 NaCl, 3 KCl, 1.2 CaCl2, 1.2 MgSO4, 1 NaH2PO4, 22 NaHCO3 and 10 glucose (aerated with 95% O2 and 5% CO2 at 37°C), pH 7.2-7.4. Hippocampi were removed on ice and coronal slices chopped (0.40 mm thick). Slices were then incubated for 1 h in the presence of a 95% O2and 5% CO2 current (37°C). After washing with fresh aCSF (37°C), slices were transferred to a modified 24 chamber's cell culture well (2 slices per chamber) adapted to accept a constant current of 95% O2 and 5% CO2 all experiment time long. 2 ml aCSF was present in each chamber. Some experiments were performed in a modified aCSF containing 1mM EGTA in the absence of Ca^2+ ions. Drugs were added immediately before slices. After 1h incubation at 37°C, 80 µl aCSF per chamber was drawn in order to evaluate the metabolization time-course. After 3h incubation the experiment ended with a new 80 µl drawing.
Rat hippocampal slices, incubated in physiological conditions (95% 02; 5% CO2 at 37°C, pH 7.2-7.4), metabolized Compound 1 ((S)-4-amino-5-[(4,4-dimethylcyclohexyl)-amino]-5-oxo-pentanoic acid) into Compound 2 (4,4-dimethyl-cyclohexamine) + glutamic acid. After 1h incubation 2,5% ± 0,3% (n=2) Compound 1 was cleaved to yield Compound 2. After 3h incubation 9,0% ± 0,0% (n=2) Compound 1 was cleaved to Compound 2. In the presence of 3 µM amastatin, a selective inhibitor of aminopeptidase A, the cleavage of Compound 1 at 1h and 3h was reduced to 0,5% and 2,0%, respectively (see Figure 2). […] Since aminopeptidase A is a Ca++-dependent enzyme, the cleavage of Compound 1 was then examined under Ca++ -free conditions. In the absence of Ca++ ions, Compound 1 cleavage was inhibited by 76% at 1h and 3h. Aminopeptidase A therefore appears to be the principal enzyme responsible for the cleavage of Compound 1 into Compound 2 plus glutamate.

[11] = test system: rats; test: Lever-holding operant behaviour (Skinner Box); type: in vivo; settings: 3-10-30 mg/kg i.p., 14 days, p=0.007 versus control
Protocol: In a further test of learning, lever-holding operant behaviour was tested in a standard rodent operant conditioning chamber (Skinner Box). Rats were trained to press the lever for water reward on a continuous reinforcement schedule, for which each lever pressing was rewarded. Daily sessions lasted 30 min and were performed under a green light. Water was restricted to a 30 min post-session period. After two days of stabilisation, rats were subjected to a visual discrimination schedule, in which a green light signalled the availability of the reinforcement for 60 sec, followed by a 30 sec interval with no reinforcement. Daily sessions lasted 30 min and were repeated for 14 days. Data were expressed as the Efficiency Index, which is a ratio of reinforced (correct responses during a session) to non-reinforced responses.

## CC1(C)CCC(N)CC1 [Compound 2, 4,4-dimethyl-cyclohexylamine]
[1]
  inhibition of MK-801 binding: inhibited MK-801 binding in a dose-dependent fashion
[2]; 100 millivolts
  IC50: 30 µM
[2]; -60 millivolts
  IC50: 117 µM
[3]; Rattus norvegicus, Pyramidal neuron, slices of 8 day old rats, read-out: IC50, prevention of NMDA-induced damage
  IC50: 189 ± 42.4 µM
[4]; 16 mg/kg, 1 hour prior to ischemia, ischemia alone 50% mortality
  protective (7-day mortality): 100%
[4]; administered 1 hour prior to ischemia
  protection from neuronal degeneration and death: dose-dependently protected
[5]
  percent of conditioned avoidance: without activity
[6]
  test acquisition in the radial maze: without effect
[7]
  retention latency, reversal of scopolamine-induced memory impairment: unable to reverse
[8]
  step-down latency after electroconvulsive shock: without effect

## CC1(C)CCC(NC(=O)[C@@H](N)CCC(=O)O)CC1 [Compound 1, (S)-4-amino-5-(4,4-dimethylcyclohexylamino)-5-oxopentanoic acid]
[9]
  Tmax: 1 h
  plasma lag-time: 0.12 h
  time to maximum concentration in the CSF: 45 to 60 min
[9]; ip
  Kp: 0.48
  lag time for crossing the blood-CSF barrier: 0.23 h
[9]; po
  Kp: 0.62
  lag time for crossing the blood-CSF barrier: 0.1 h
[10]; in the absence of Ca++ ions, at 1h and 3h
  Compound 1 cleavage inhibited: 76%
[10]; rat, 1 h, pH 7.2
  Compound 1 cleaved to yield Compound 2: 2,5% ± 0,3%
[10]; rat, 3 h, pH 7.2
  Compound 1 cleaved to Compound 2: 9,0% ± 0,0%
[3]
  effect on NMDA-induced neuronal damage: no effect
[4]; 50mg/kg, ischemia alone 50% 7-day mortality
  mortality: zero
[5]
  percent of conditioned avoidance: increased
[5]; rat, in vivo
  uncoordinated escape responses or spontaneous inter-trial responses: did not affect
[11]
  percent of reinforced responses (Efficiency Index): increased in a dose-dependent manner
[6]; 10 and 30 mg/kg (P <0.05, P <0.01, respectively)
  number of sessions to reach acquisition criterion: decreased
[6]
  test acquisition in the radial maze: faster test acquisition
[7]
  retention latency, reversal of scopolamine-induced memory impairment: dose-dependently increased latency
[8]
  step-down latency after electroconvulsive shock: dose-dependently increased step-down latency

## CC(C)C[C@@H](N)[C@H](O)C(=O)N[C@H](C(=O)N[C@H](C(=O)N[C@@H](CC(=O)O)C(=O)O)C(C)C)C(C)C [Amastatin, reference compound]
[10]; rat hippocampal slices, read-out: IC50, inhibition of cleavage of Compound 1
  IC50: 0.3 µM
